This passage reports TGI and GI50 results from PubChem BioAssay (NCI).

Test systems include 786-0 renal; RXF 393 renal; SNB-19 CNS; COLO 205 colon; SF-539 CNS; SK-MEL-2 melanoma; A549 NSCLC; HCT-116 colon; EKVX NSCLC; MALME-3M melanoma.
Common to all, as to experiment: inhibition of tumour cell growth, NCI panel, 48 h

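48-hour exposure; five concentrations; linearly interpolated endpoints. At the GI50, growth is halved. TGI: total growth inhibition.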

In the case of `COc1c(OC(C)=O)cc2c(OC(C)=O)c1CC(C)CC(OC)C(O)C(C)/C=C(\C)C(OC(N)=O)C(OC)/C=C\C=C(/C)C(=O)N2` (stereo not given), the TGI in the test on 786-0 renal, in the test on RXF 393 renal, in the test with SNB-19 CNS, in the test with COLO 205 colon, with SF-539 CNS and in the test with SK-MEL-2 melanoma was > 100 µM throughout. In addition, the TGI in the test on A549 NSCLC, with HCT-116 colon, with EKVX NSCLC and with MALME-3M melanoma was > 100 µM throughout.

`C=C1C(=O)OC2CCCCC3OC3C12` (stereo not given): the TGI in the test with 786-0 renal worked out at 19.8 µM; with RXF 393 renal it was 30.1 µM; in the test with SNB-19 CNS, 36.8 µM; in the test with COLO 205 colon it was 11.5 µM; with SF-539 CNS, 28.1 µM; in the test on SK-MEL-2 melanoma, 27.5 µM. Besides, the TGI worked out at 40.2 µM in the test with A549 NSCLC, 13 µM in the test with HCT-116 colon, 34.6 µM with EKVX NSCLC and 23.1 µM with MALME-3M melanoma.

As to `COc1cc2c(cc1OC)C(CCc1ccc(Cl)cc1)N(C)CC2` (stereo not given), the GI50 with 786-0 renal was 17.4 µM; in the test with RXF 393 renal, 17.8 µM; in the test with SNB-19 CNS, 37.1 µM; in the test on COLO 205 colon, 17.6 µM; in the test with SF-539 CNS, 17.1 µM; with SK-MEL-2 melanoma, 19.7 µM. Moreover, the GI50 in the test on A549 NSCLC was 45.2 µM; in the test on HCT-116 colon, 13.8 µM; with EKVX NSCLC it was 16.7 µM; with MALME-3M melanoma, 21.6 µM. Moreover, the TGI with 786-0 renal was 48.9 µM; with RXF 393 renal, 58.3 µM; in the test on SNB-19 CNS, > 100 µM; with COLO 205 colon, 34.6 µM; in the test with SF-539 CNS, 39 µM; in the test on SK-MEL-2 melanoma it was 37.1 µM. Moreover, the TGI in the test on A549 NSCLC is > 100 µM; with HCT-116 colon it was 52.9 µM; with EKVX NSCLC, 81 µM; with MALME-3M melanoma, 46.5 µM.

`O=C(CCCn1c2c(sc3ncccc32)c(=O)n2nnc(-c3ccccc3)c12)NCCc1cnc[nH]1`: the GI50 is 12.6 µM in the test with 786-0 renal; 14.8 µM in the test with RXF 393 renal; 10.8 µM in the test on SNB-19 CNS; 6.28 µM with COLO 205 colon; 0.316 µM in the test on SF-539 CNS; 17.6 µM in the test on SK-MEL-2 melanoma. For the same compound, the GI50 was 8.74 µM with A549 NSCLC, 0.378 µM in the test on HCT-116 colon, 15.2 µM in the test on EKVX NSCLC and 18.1 µM with MALME-3M melanoma. The TGI in the test on 786-0 renal is 25.7 µM; in the test with RXF 393 renal, 34 µM; in the test on SNB-19 CNS it was 33.7 µM; in the test on COLO 205 colon it was 23.5 µM; with SF-539 CNS, 14.9 µM; in the test with SK-MEL-2 melanoma, 38.9 µM. The TGI in the test on A549 NSCLC was determined as 34.7 µM; in the test on HCT-116 colon, 10.1 µM; with EKVX NSCLC, 44.5 µM; in the test on MALME-3M melanoma, 37 µM.

For `COC(=O)[C@]12CC[C@@H](C)[C@H](C)[C@@H]1C1=CC[C@@H]3[C@@]4(C)C[C@@H](OC(=O)c5ccco5)[C@H](O)[C@@](C)(CO)[C@@H]4[C@H](O)C[C@@]3(C)[C@]1(C)CC2`, the GI50 is 2.1 µM with 786-0 renal; 1.66 µM with RXF 393 renal; 3.47 µM in the test on SNB-19 CNS; 1.82 µM in the test on COLO 205 colon; 2.28 µM in the test with SF-539 CNS; 1.97 µM with SK-MEL-2 melanoma. In addition, the GI50 was 2.44 µM in the test on A549 NSCLC, 1.88 µM with HCT-116 colon, 2.78 µM in the test with EKVX NSCLC and 2.15 µM with MALME-3M melanoma. The TGI with 786-0 renal turned out to be 4.46 µM; in the test on RXF 393 renal, 3.34 µM; in the test on SNB-19 CNS it was 15 µM; in the test on COLO 205 colon, 3.44 µM; in the test with SF-539 CNS it was 5.17 µM; in the test on SK-MEL-2 melanoma it was 4.31 µM. Besides, the TGI was determined as 7.05 µM in the test on A549 NSCLC, 3.41 µM in the test with HCT-116 colon, 8.67 µM with EKVX NSCLC and 4.3 µM in the test with MALME-3M melanoma.

Regarding `O=C1Cc2cc(CCn3ccnc3)c(Cl)cc2N1`, the GI50 is > 100 µM in the test on 786-0 renal; 6.28 µM in the test with RXF 393 renal; 22.1 µM with SNB-19 CNS; 15.1 µM with COLO 205 colon; 60 µM in the test with SF-539 CNS; 5.78 µM with SK-MEL-2 melanoma. In addition, the GI50 in the test on A549 NSCLC was 7.63 µM; in the test with HCT-116 colon, 13.1 µM; in the test on EKVX NSCLC it was 0.613 µM; in the test on MALME-3M melanoma it was 79.5 µM. The TGI in the test on 786-0 renal is > 100 µM; with RXF 393 renal, > 100 µM; with SNB-19 CNS, > 100 µM; with COLO 205 colon it was > 100 µM; with SF-539 CNS, > 100 µM; with SK-MEL-2 melanoma, 73.6 µM. Further, the TGI in the test with A549 NSCLC, in the test with HCT-116 colon, in the test on EKVX NSCLC and in the test with MALME-3M melanoma was > 100 µM in each case.

As to `C/C(=N\NC(=O)CC(=O)Nc1ccc(C)cc1)c1cc2ccccc2oc1=O`, the TGI with 786-0 renal, with RXF 393 renal, in the test on SNB-19 CNS, in the test on COLO 205 colon, in the test on SF-539 CNS and in the test with SK-MEL-2 melanoma was > 100 µM throughout. Moreover, the TGI with A549 NSCLC, in the test on HCT-116 colon, in the test with EKVX NSCLC and with MALME-3M melanoma was > 100 µM throughout.

Turning to `OC1CN(OC/C=C/c2ccccc2)CC(O)C1O` (stereo not given), the TGI with 786-0 renal is 77 µM; in the test on RXF 393 renal, > 100 µM; in the test with SNB-19 CNS, > 100 µM; in the test with COLO 205 colon it was > 100 µM; with SF-539 CNS, > 100 µM; in the test on SK-MEL-2 melanoma it was > 100 µM. The TGI in the test with A549 NSCLC, with HCT-116 colon, in the test on EKVX NSCLC and with MALME-3M melanoma was > 100 µM in each case.

`COC1=C(OC)C(=O)C(/C=C(\C)C(=O)O)=C(C)C1=O`: the GI50 in the test on 786-0 renal, in the test on RXF 393 renal, in the test on SNB-19 CNS, in the test on COLO 205 colon, in the test on SF-539 CNS and in the test on SK-MEL-2 melanoma was > 100 µM throughout. Moreover, the GI50 in the test on A549 NSCLC, in the test on HCT-116 colon, in the test on EKVX NSCLC and with MALME-3M melanoma was > 100 µM in each case. Further, the TGI in the test with 786-0 renal, with RXF 393 renal, in the test with SNB-19 CNS, with COLO 205 colon, in the test with SF-539 CNS and in the test on SK-MEL-2 melanoma was > 100 µM throughout. In addition, the TGI in the test on A549 NSCLC, in the test with HCT-116 colon, with EKVX NSCLC and with MALME-3M melanoma was > 100 µM each time.
